In patent publication US8598120B2 (Amylin Pharmaceuticals, LLC, priority 2004, dated 2013):
Square brackets hold non-standard residues; d marks the D form. Ends that are not written are not given here. * marks the point of attachment. Pentanoyl(4-Me) = CC(C)CCC(=O)*; Orn = NCCC[C@H](N)C(=O)O

Experiment: Food intake assay in overnight fasted mice
Format: in vivo
Conditions: 25 nmol/kg intraperitoneal
Experimental: Female NIH/Swiss mice (8-14 weeks old) were group housed with a 12:12 hour light:dark cycle. Water and a standard pelleted mouse chow diet are available ad libitum, except as noted. Animals are fasted starting at approximately 1500 hrs, 1 day prior to experiment.
The effects of treatment on food intake are expressed as % change relative to control.

| Substance | cumulative food intake compared to vehicle, 30 min [%] | cumulative food intake compared to vehicle, 60 min [%] | cumulative food intake compared to vehicle, 120 min [%] | cumulative food intake compared to vehicle, 180 min [%] |
| --- | --- | --- | --- | --- |
| KCNTATCVLGRLAAFLHRLQTYPRTNTGSNTY [Compound 96] | −49 | −38 | −19 | −23 |
| KCNTATCVLGRLADALHRLQTYPRTNTGSNTY [Compound 95] | −81 | −69 | −34 | −31 |
| KCNTATCVLGRLADFLHRFHTFPRTNTGSNTY [Compound 108] | −70 | −66 | −38 | – |
| KCNTATCVLGRLADFLHRFQTFPRTNTGSGTP [Compound 109] | −61 | −54 | −43 | – |
| KCNTATCVLGRLADFLHRFQTFPRTNTGSNTY [Compound 107] | −84 | −78 | −47 | – |
| KCNTATCVLGRLADFLHRLQTYPRTNTGSNTY [Compound 88] | −64 | −61 | −39 | −22 |
| KCNTATCVLGRLAEFLHRLQTYPRTNTGSNTY [Compound 104] | −69 | −67 | −54 | – |
| KCNTATCVLGRLANFLHRLQTYPRTNTGSNTY [Compound 14] | −52 | −36 | −28 | −33 |
| KCNTATCVLGRLAQFLHRLQTYPRTNTGSNTY [Compound 106] | −58 | −54 | −39 | – |
| KCNTATCVLGRLFDFLHRLQTYPRTNTGSNTY [Compound 112] | −62 | −65 | −50 | – |
| KCNTATCVLGRLNEYLHRLQTYPRTNTGSNTY [Compound 101] | −52 | −48 | −35 | – |
| KCNTATCVLGRLSQELHKLQTYPRTNTGSNTY [Compound 24] | −40 | −34 | −35 | −35 |
| KCNTATCVLGRLSQELHRLQNFVPRTNTGSNTY [Compound 90] | −55 | −41 | −24 | −15 |
| KCNTATCVLGRLSQELHRLQTLLQTYPRTNTGSNTY [Compound 48] | −54 | −51 | −36 | – |
| KCNTATCVLGRLSQELHRLQTLPPTNVGSNTY [Compound 13] | −40 | −33 | −25 | −24 |
| KCNTATCVLGRLSQELHRLQTLPRTNTGSNTY [Compound 11] | −52 | −47 | −38 | −35 |
| KCNTATCVLGRLSQELHRLQTMPRTNTGSNTY [Compound 99] | −57 | −55 | −50 | – |
| KCNTATCVLGRLSQELHRLQTVPRTNTGSNTY [Compound 100] | −60 | −52 | −41 | – |
| KCNTATCVLGRLSQELHRLQTYPPTNTGSNTY [Compound 12] | −43 | −39 | −37 | −32 |

| Substance | cumulative food intake compared to vehicle, 30 min [%] | cumulative food intake compared to vehicle, 60 min [%] | cumulative food intake compared to vehicle, 120 min [%] | cumulative food intake compared to vehicle, 180 min [%] |
| --- | --- | --- | --- | --- |
| KCNTATCVLGRLSQELHRLQTYPRTNTGSETF [Compound 91] | −59 | −47 | −26 | −24 |
| KCNTATCVLGRLSQELHRLQTYPRTNTGSGTP [Compound 25] | −29 | −34 | −45 | – |
| KCNTATCVLGRLSQELHRLQTYPRTNTGSKAF [Compound 93] | −43 | −30 | −27 | −29 |
| KCNTATCVLGRLSQELHRLQTYPTNVGSEAF [Compound 85] | 3 | −16 | −16 | – |
| KCNTATCVLGRLSQELHRYPRTNTGSNTY [Compound 39] | 7 | −14 | −23 | – |
| KCNTATCVLGRLSQELH[Orn]LQTYPRTNTGSNTY (cysteine pairing not given here) [Compound 77] | −46 | −43 | −44 | – |
| KCNTATCVLGRLSRSLHRLQTYPRTNTGSNTY [Compound 86] | −44 | −26 | −16 | – |
| KCNTATCVLGRLTDYLHRLQTYPRTNTGSNTY [Compound 105] | −83 | −82 | −52 | – |
| KCNTATCVLGRLTEFLHRLQTYPRTNTGSNTY [Compound 103] | −50 | −44 | −30 | – |
| KCNTATCVLG[Orn]LSQELH[Orn]LQTYPRTNTGSNTY (cysteine pairing not given here) [Compound 61] | −23 | −27 | −32 | – |
| KCNTATCVTHRLSQELHRLQTYPRTNTGSNTY [Compound 87] | −43 | −32 | −21 | – |
| KCNTAVCVLGRLSQELHRLQTYPRTNTGSNTY [Compound 37] | −3 | −2 | −16 | – |
| KCNTSTCATQRLANELVRLQTYPRTNVGSEAF [Compound 84] | −53 | −40 | −20 | – |
| KCNTSTCATQRLANELVRLQTYPRTNVGSNTY [Compound 53] | −92 | −89 | −36 | – |
| KCNTSTCVLGRLSQELHRLQTYPRTNTGSNTY [Compound 50] | −70 | −62 | −48 | – |
| KDNTATKVLGRLSQELHRLQTYPRTNTGSNTY [Compound 69] | −29 | −31 | −45 | – |
| SCNTATCVLGRLADFLHRLQTYPRTNTGSNTY [Compound 97] | −78 | −76 | −60 | −40 |
| TCDTATCVLGRLSQELHRLQTYPRTNTGSNTY [Compound 114] | −17 | −20 | −25 | – |
| isocaproyl-STAVLGRLSQELHRLQTYPRTNTGSNTY ({Pentanoyl(4-Me)}-STAVLGRLSQELHRLQTYPRTNTGSNTY-NH2; SMILES CC(C)CCC(=O)N[C@@H](CO)C(=O)N[C@H](C(=O)N[C@@H](C)C(=O)N[C@H](C(=O)N[C@@H](CC(C)C)C(=O)NCC(=O)N[C@@H](CCCNC(=N)N)C(=O)N[C@@H](CC(C)C)C(=O)N[C@@H](CO)C(=O)N[C@@H](CCC(N)=O)C(=O)N[C@@H](CCC(=O)O)C(=O)N[C@@H](CC(C)C)C(=O)N[C@@H](Cc1c[nH]cn1)C(=O)N[C@@H](CCCNC(=N)N)C(=O)N[C@@H](CC(C)C)C(=O)N[C@@H](CCC(N)=O)C(=O)N[C@H](C(=O)N[C@@H](Cc1ccc(O)cc1)C(=O)N1CCC[C@H]1C(=O)N[C@@H](CCCNC(=N)N)C(=O)N[C@H](C(=O)N[C@@H](CC(N)=O)C(=O)N[C@H](C(=O)NCC(=O)N[C@@H](CO)C(=O)N[C@@H](CC(N)=O)C(=O)N[C@H](C(=O)N[C@@H](Cc1ccc(O)cc1)C(N)=O)[C@@H](C)O)[C@@H](C)O)[C@@H](C)O)[C@@H](C)O)C(C)C)[C@@H](C)O) [Compound 20] | −9 | −21 | −30 | −31 |
